{"source": "paper PMC3106281", "about": "(Analytical biochemistry, 2010)", "key": {"[1]": {"test_system": "colistin-resistant K. pneumoniae clinical isolate", "type": "cell-based, Klebsiella pneumoniae", "conditions": "broth microdilution"}, "[2]": {"test_system": "colistin-resistant P. aeruginosa clinical isolate", "type": "cell-based, Pseudomonas aeruginosa", "conditions": "broth microdilution, two replicates"}, "[3]": {"test_system": "colistin-resistant A. baumannii clinical isolate", "type": "cell-based, Acinetobacter baumannii", "conditions": "broth microdilution"}, "[4]": {"test_system": "K. pneumoniae ATCC 13883", "type": "cell-based, Klebsiella pneumoniae", "conditions": "broth microdilution"}, "[5]": {"test_system": "A. baumannii ATCC 19606", "type": "cell-based, Acinetobacter baumannii", "conditions": "broth microdilution"}, "[6]": {"experiment": "Fluorometric assay, purified LPS", "type": "binding", "conditions": "E. coli, K. pneumoniae, S. enterica (and P. aeruginosa) LPS"}, "[7]": {"test_system": "bacteria", "conditions": "ref [47]; [48]; cited from earlier work"}, "[8]": {"experiment": "Isothermal titration calorimetry", "type": "binding, Escherichia coli", "conditions": "ITC, 37°C"}, "[9]": {"conditions": "above the Tc; ref [54]; cited from earlier work"}, "[10]": {"conditions": "ref [52], cited from earlier work"}}, "note": "Read-outs that look alike come from different tables or passages of the source. Bridge positions count the residues as written; N and C are the ends. Square brackets hold non-standard residues; d marks the D form. Peptide text beside a SMILES is read from it. * marks the point of attachment. X1 = CC[C@H](C)CCCCC(=O)*; Dab = NCC[C@H](N)C(=O)O"}
{"compound": "CC[C@H](C)CCCCC(=O)N[C@@H](CCN)C(=O)N[C@H](C(=O)N[C@@H](CCN)C(=O)N[C@H]1CCNC(=O)[C@H]([C@@H](C)O)NC(=O)[C@H](CCN)NC(=O)[C@H](CCN)NC(=O)[C@H](CC(C)C)NC(=O)[C@@H](CC(C)C)NC(=O)[C@H](CCN)NC1=O)[C@@H](C)O", "note": "[Colistin, colistin] (X1-[Dab]T[Dab][Dab][Dab][dL]L[Dab][Dab]T; lactam 4-C (inferred); N-terminus assumed)", "values": [{"measurement": "MIC", "setting": "[1]", "value": "> 128", "unit": "µg/mL"}, {"measurement": "MIC", "setting": "[2]", "value": "> 128", "unit": "µg/mL"}, {"measurement": "MIC", "setting": "[3]", "value": 16, "unit": "µg/mL"}, {"measurement": "MIC", "setting": "[4]", "value": 1, "unit": "µg/mL"}, {"measurement": "MIC", "setting": "[5]", "value": 1, "unit": "µg/mL"}]}
{"compound": "polymyxin B nonapeptide [PBN]", "values": [{"measurement": "Binding affinity for isolated LPS, comparison in words", "setting": "[6]", "value": "lowest binding affinity for LPS"}, {"measurement": "Antibacterial activity", "setting": "[7]", "value": "negligible antibacterial activity"}]}
{"compound": "polymyxin B [PmB]", "values": [{"measurement": "Absolute peptide concentration in the cell where saturation began", "setting": "[8]; LPS 125 μM, 14th injection (PmB), 18th injection (DPmB3)", "value": 98, "unit": "µM"}, {"measurement": "ΔH1", "setting": "[8]; first set of sites, 20 mM HEPES pH 7.0, two-site model", "value": "-1.5 ± 0.4", "unit": "kcal/mol"}, {"measurement": "ΔS1", "setting": "[8]; first set of sites, calculated from ΔH and ΔG0", "value": 6.9, "unit": "kcal/mol"}, {"measurement": "ΔH2", "setting": "[8]; second set of sites, 20 mM HEPES pH 7.0, two-site model", "value": "-12 ± 3.7", "unit": "kcal/mol"}, {"measurement": "ΔS2", "setting": "[8]; second set of sites, calculated from ΔH and ΔG0", "value": -1.8, "unit": "kcal/mol"}, {"measurement": "Calorimetric reaction with LPS", "setting": "[9]", "value": "endothermic"}, {"measurement": "Calorimetric reaction with LPS", "setting": "[10]; temperatures ≤30°C, below Tc of LPS", "value": "endothermic"}, {"measurement": "Calorimetric reaction with LPS", "setting": "[10]; ≥35°C, above phase transition temperature, [53]", "value": "exothermic"}]}
